Test results: patent US7932284B2, “Indole sulfonamide modulators of progesterone receptors” (Eli Lilly and Company, priority 2006, dated 2011)

Columns and labels:
[1] = molecular target: T1, human GR (glucocorticoid receptor) (Homo sapiens, UniProt P04150); assay: GR competition binding assay (HEK293 cell lysate); details: 0.3 nM 3H-dexamethasone, 293-GR lysate
T1 construct: expressed in transfected cells; host or cells: HEK293
T1 sequence (P04150 1-777): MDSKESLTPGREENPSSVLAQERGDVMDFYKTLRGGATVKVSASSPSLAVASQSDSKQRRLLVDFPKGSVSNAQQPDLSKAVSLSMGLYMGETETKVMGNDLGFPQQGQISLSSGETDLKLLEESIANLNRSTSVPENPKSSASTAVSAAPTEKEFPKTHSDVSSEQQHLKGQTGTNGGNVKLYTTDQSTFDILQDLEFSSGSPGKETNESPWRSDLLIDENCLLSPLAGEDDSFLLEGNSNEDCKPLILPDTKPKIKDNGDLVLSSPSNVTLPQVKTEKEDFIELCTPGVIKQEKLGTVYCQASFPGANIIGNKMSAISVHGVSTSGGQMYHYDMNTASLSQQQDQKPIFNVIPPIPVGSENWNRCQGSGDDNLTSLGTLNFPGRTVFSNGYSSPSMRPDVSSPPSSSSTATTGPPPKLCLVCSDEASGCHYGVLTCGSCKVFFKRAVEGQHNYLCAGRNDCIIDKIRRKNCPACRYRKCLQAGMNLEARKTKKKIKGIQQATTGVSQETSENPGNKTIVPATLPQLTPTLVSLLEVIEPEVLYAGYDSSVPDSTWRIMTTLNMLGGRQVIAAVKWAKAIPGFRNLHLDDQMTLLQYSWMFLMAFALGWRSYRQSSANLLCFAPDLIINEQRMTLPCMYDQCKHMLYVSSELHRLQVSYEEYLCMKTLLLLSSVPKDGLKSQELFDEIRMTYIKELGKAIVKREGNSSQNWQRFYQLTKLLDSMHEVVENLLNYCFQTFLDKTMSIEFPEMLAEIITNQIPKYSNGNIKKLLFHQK
Experimental: (§1) Cell lysates from HEK293 cells overexpressing human GR (glucocorticoid receptor), AR (androgen receptor), MR (mineralocorticoid receptor) or PR (progesterone receptor) are used for competition binding assays to determine Ki values for compounds of interest. Briefly, competition binding assays are run in a buffer containing 20 mM HEPES, pH 7.6, 0.2 mM EDTA, 75 mM NaCl, 1.5 mM MgCl2, 20% glycerol, 20 mM sodium molybdate, 0.2 mM DTT, 20 ug/ml aprotinin, and 20 ug/ml leupeptin, using either 0.3 nM ^3H-dexamethasone for GR binding, 0.36 nM ^3H-methyltrienolone for AR binding, 0.25 nM ^3H-aldosterone for MR binding, or 0.29 nM ^3H-methyltrienolone for PR binding, and either 20 ug 293-GR lysate, 22 ug 293-AR lysate, 20 ug 293-MR lysate or 40 ug 293-PR lysate per well. Competing compounds are added at various concentrations in half-log increments. Non-specific binding is determined in the presence of 500 nM dexamethasone for GR binding, 500 nM aldosterone for MR binding, or 500 nM methyltrienolone for AR and PR binding. The binding reaction (140 μl) is incubated overnight at 4° C., then 70 μl of cold charcoal-dextran buffer (containing per 50 ml of assay buffer, 0.75 g of charcoal and 0.25 g of dextran) is added to each reaction. Plates are mixed 8 minutes on an orbital shaker at 4° C. Plates are then centrifuged at 3,000 rpm at 4° C. for 10 minutes. An aliquot of 120 μl of the mixture is transferred to another 96-well plate and 175 μl of Wallac Optiphase “Hisafe 3” scintillation fluid is added to each well. Plates are sealed and shaken vigorously on an orbital shaker. After an incubation of 2 hrs, plates are read in a Wallac Microbeta counter. […] The Kd for ^3H-dexamethasone for GR binding, ^3H-methyltrienolone for AR binding, ^3H-aldosterone for MR binding, or ^3H-methyltrienolone for PR binding, is determined by saturation binding. The IC50 values for compounds are converted to Ki using Cheng-Prusoff equation and the Kd determined by saturation binding assay.

[2] = molecular target: T2, human PR (progesterone receptor) (Homo sapiens, UniProt P06401); assay: PR competition binding assay (HEK293 cell lysate); details: 0.29 nM 3H-methyltrienolone, 293-PR lysate
T2 construct: expressed in transfected cells; host or cells: HEK293
T2 sequence (P06401 1-933): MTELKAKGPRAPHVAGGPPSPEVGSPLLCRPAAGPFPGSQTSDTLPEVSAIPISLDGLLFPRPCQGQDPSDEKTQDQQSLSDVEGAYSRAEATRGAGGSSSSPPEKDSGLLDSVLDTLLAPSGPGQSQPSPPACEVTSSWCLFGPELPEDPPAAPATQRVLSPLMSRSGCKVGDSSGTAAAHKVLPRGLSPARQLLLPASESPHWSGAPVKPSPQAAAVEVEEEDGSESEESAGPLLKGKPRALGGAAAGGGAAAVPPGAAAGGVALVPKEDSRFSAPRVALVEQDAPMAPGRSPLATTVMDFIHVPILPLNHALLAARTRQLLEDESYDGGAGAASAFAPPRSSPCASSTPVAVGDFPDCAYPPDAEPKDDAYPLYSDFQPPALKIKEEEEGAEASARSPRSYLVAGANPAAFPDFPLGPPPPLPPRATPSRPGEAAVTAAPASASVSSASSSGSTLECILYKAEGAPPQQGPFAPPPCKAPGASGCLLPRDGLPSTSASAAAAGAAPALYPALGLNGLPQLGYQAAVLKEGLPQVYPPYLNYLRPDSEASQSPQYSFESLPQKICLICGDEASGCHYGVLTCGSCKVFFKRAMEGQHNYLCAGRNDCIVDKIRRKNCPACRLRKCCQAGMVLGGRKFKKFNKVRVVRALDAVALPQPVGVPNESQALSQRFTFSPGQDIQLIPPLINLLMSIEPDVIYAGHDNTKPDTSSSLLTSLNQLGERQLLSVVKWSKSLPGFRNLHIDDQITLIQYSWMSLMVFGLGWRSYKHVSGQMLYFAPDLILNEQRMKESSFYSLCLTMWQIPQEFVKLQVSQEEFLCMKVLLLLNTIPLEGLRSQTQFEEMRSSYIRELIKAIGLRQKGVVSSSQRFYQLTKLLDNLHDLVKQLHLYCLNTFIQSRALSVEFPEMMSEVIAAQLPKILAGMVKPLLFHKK
Experimental: as §1
More preferably the compounds of the present invention have PR binding value K; of <10 nM.

Row | SMILES | Ki [1] | Ki [2]
1 | COc1ccc(-c2cn(C(C)C)c3cc(NS(C)(=O)=O)ccc23)cc1C [Example 86, N-[1-Isopropyl-3-(4-methoxy-3-methyl-phenyl)-1H-indol-6-yl]-methanesulfonamide] | > 1000 nM | < 50 nM
2 | CC(C)n1cc(-c2ccc(C(N)=O)cc2)c2ccc(NS(C)(=O)=O)cc21 [Example 87, 4-(1-Isopropyl-6-methanesulfonylamino-1H-indol-3-yl)-benzamide] | > 1000 nM | < 50 nM
3 | COc1ccc(-c2cn(C(C)C)c3cc(NS(C)(=O)=O)ccc23)cn1 [Example 88, N-[1-Isopropyl-3-(6-methoxy-pyridin-3-yl)-1H-indol-6-yl]-methanesulfonamide] | > 1000 nM | < 50 nM
4 | CC(C)n1cc(-c2ccc(O)cc2)c2ccc(NS(C)(=O)=O)cc21 [Example 93, N-[3-(4-Hydroxy-phenyl)-1-isopropyl-1H-indol-6-yl]-methanesulfonamide] | > 1000 nM | < 50 nM
5 | CC(C)n1cc(-c2ccc(C=NO)cc2)c2ccc(NS(C)(=O)=O)cc21 [Example 94, N-{3-[4-(Hydroxyimino-methyl)-phenyl]-1-isopropyl-1H-indol-6-yl}-methanesulfonamide] | > 1000 nM | < 50 nM
6 | CC(C)n1cc(-c2ccc3sccc3c2)c2ccc(NS(C)(=O)=O)cc21 [Example 95, N-(3-Benzo[b]thiophen-5-yl-1-isopropyl-1H-indol-6-yl)-methanesulfonamide] | > 1000 nM | < 50 nM
7 | CC(C)n1cc(-c2ccc3oc(=O)ccc3c2)c2ccc(NS(C)(=O)=O)cc21 [Example 96, N-[1-Isopropyl-3-(2-oxo-2H-chromen-6-yl)-1H-indol-6-yl]-methanesulfonamide] | > 1000 nM | < 50 nM
8 | CC(C)n1cc(-c2ccc3c(c2)COC3=O)c2ccc(NS(C)(=O)=O)cc21 [Example 97, N-[1-Isopropyl-3-(1-oxo-1,3-dihydro-isobenzofuran-5-yl)-1H-indol-6-yl]-methanesulfonamide] | > 1000 nM | < 50 nM
9 | CC(C)n1cc(-c2ccc(C#N)cc2)c2ccc(NS(=O)(=O)C(F)(F)F)cc21 [Example 98, N-[3-(4-Cyano-phenyl)-1-isopropyl-1H-indol-6-yl]-C,C,C-trifluoro-methanesulfonamide] | > 1000 nM | < 50 nM
10 | CC(C)n1cc(-c2ccc(C#N)cc2)c2ccc(NS(=O)(=O)N3CCOCC3)cc21 [Example 100, Morpholine-4-sulfonic acid [3-(4-cyano-phenyl)-1-isopropyl-1H-indol-6-yl]-amide] | > 1000 nM | 50 to 100 nM
11 | CC(C)n1cc(-c2ccc3c(cnn3C)c2)c2ccc(NS(C)(=O)=O)cc21 [Example 107, N-[1-Isopropyl-3-(1-methyl-1H-indazol-5-yl)-1H-indol-6-yl]-methanesulfonamide] | > 1000 nM | 50 to 100 nM
